The test system of assay [1] is sirtuin. As to conditions: reported in Non-Patent Documents 4 and 5; cited from earlier work.
Assay [2] deals with T1, SIRT1 enzyme (Homo sapiens, UniProt Q96EB6).
T1 construct: purchased BIOMOL International (via COSMO BIO CO., LTD.) AK-555 (kit); SE-239 (enzyme)
T1 sequence (Q96EB6 1-747): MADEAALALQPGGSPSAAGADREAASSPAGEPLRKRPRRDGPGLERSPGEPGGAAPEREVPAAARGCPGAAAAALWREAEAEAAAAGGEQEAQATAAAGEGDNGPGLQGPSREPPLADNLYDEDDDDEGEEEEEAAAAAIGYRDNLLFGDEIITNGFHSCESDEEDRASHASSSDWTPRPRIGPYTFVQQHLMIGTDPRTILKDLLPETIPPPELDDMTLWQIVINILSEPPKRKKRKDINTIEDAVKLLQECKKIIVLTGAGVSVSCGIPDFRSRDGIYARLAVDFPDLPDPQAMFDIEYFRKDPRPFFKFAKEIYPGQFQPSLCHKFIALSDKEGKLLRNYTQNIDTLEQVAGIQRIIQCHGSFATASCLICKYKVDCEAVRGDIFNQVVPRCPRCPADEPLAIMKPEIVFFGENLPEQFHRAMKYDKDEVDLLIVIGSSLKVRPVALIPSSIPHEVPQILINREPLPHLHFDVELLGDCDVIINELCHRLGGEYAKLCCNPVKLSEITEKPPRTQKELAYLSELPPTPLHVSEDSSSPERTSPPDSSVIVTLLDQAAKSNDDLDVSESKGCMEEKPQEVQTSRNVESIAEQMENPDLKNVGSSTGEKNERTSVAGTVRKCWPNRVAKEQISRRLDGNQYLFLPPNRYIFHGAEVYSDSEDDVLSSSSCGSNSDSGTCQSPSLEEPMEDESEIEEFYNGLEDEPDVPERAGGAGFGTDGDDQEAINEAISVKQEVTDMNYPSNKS
Briefly: SIRT1 fluorescent activity assay: sirtuin activity acceleration by polyalkoxyflavonoid compounds (Example 6). Type of assay: biochemical. As to conditions: FIG. 8. On the procedure:
The sirtuin activity was measured according to a protocol similar to that of Example 3.
All measurement reagents (preserved at −80° C.) were stationed on ice until use to melt the SIRT1 enzyme (SE-239) and 5× Developer II (KI-176) moderately. SIRT1 enzyme was diluted to 0.2 U/μL with an assay buffer (KI-286). Resveratrol, Compounds 1 to 5 and nobiletin (Funakoshi Co.) were used as subject samples. […] To the control was added DMSO instead of a subject sample. The substrate Fluor de Lys-SIRT1 (KI-177; 5 mM) plus a coenzyme NAD^+ (KI-282; 50 mM) was diluted with an assay buffer (KI-286) to obtain a concentration that is 3.33 folds that of the final use concentration, and used in an amount of 15 μL/well. A subject sample solution (10 μL/well), SIRT1 enzyme solution (0.2 U/μL, 5 μL/well) and an assay buffer (10 μL/well) were added to the measurement microplate and pre-incubated at 37° C. for 5 minutes. The substrate solution that was heated preliminary at 37° C. was added at 25 μL/well, then, further incubated at 37° C. for 10 minutes. Then, a reaction stop solution Developer II/2 mM nicotinamide was added at 50 μL/well, and the fluorescent probe generated from Developer II was measured (excited wave length 360 nm, fluorescent wave length 460 nm) by a fluorescent plate reader (Tecan Co., Infinite 200) within 60 minutes after the reaction stopped.

Assay [3] concerns the target T1, SIRT1 enzyme. Description: SIRT1 Activity Assay/Drug Discovery kit, Fluorescent: sirtuin activity acceleration by black ginger extracts and fractions (Example 3). Type of assay: biochemical. As to conditions: subject sample solution 500 μg/mL, 10 μL/well; FIGS. 1 and 2. The procedure:
The sirtuin activity was measured according to the attached protocol using SIRT1 Activity Assay/Drug Discovery kit, Fluorescent (AK-555, BIOMOL International, Plymouth Meeting, Pa., USA [COSMO BIO CO., LTD., Tokyo]).
All measurement reagents (preserved at −80° C.) were stationed on ice until use to melt the SIRT1 enzyme (SE-239) and 5× Developer II (KI-176) moderately. SIRT1 enzyme was diluted to 0.2 U/μL with an assay buffer (KI-286). Resveratrol and extracts and fragments of the black ginger obtained above were used as subject samples. Solutions of 500 μg/mL were prepared using purified water for hot water extracts and the water phase fraction, and using DMSO for other samples. A solution of 10 μL/well was used for each obtained subject sample. To the control was added either DMSO or purified water instead of a subject sample. The substrate Fluor de Lys-SIRT1 (KI-177; 5 mM) plus a coenzyme NAD^+ (KI-282; 50 mM) were diluted with an assay buffer (KI-286) to obtain a concentration that is 3.33 folds that of the final usage concentration, and used in an amount of 15 μL/well. […] Then, a reaction stop solution Developer II/2 mM nicotinamide was added at 50 μL/well, and the fluorescent probe generated from Developer II was measured (excited wave length 380 nm, fluorescent wave length 460 nm) by a fluorescent plate reader (Tecan Co., Infinite 200) within 60 minutes after the reaction stopped.

With `O=C(/C=C/c1ccc(O)c(O)c1)c1ccc(O)cc1O` [butein, 3,4,2′,4′-tetrahydroxychalcone], in assay [1], the sirtuin activation activity entry is recorded as “weaker than resveratrol”.
As to `O=c1c(O)c(-c2ccc(O)c(O)c2)oc2cc(O)ccc12` [fisetin, 3,7,3′,4′-tetrahydroxyflavone], the sirtuin activation activity entry in assay [1] is “weaker than resveratrol”.
As to `O=C(/C=C/c1ccc(O)cc1)c1ccc(O)cc1O` [isoliquiritigenin, 4,2′,4′-trihydroxychalcone], in assay [1], the sirtuin activation activity result was “weaker than resveratrol”.
Turning to `O=c1c(O)c(-c2ccc(O)c(O)c2)oc2cc(O)cc(O)c12` [quercetin, 3,5,7,3′,4′-pentahydroxyflavone], in assay [1], the sirtuin activation activity entry is on record as “weaker than resveratrol”.
Take `Oc1ccc(C=Cc2cc(O)cc(O)c2)cc1` [resveratrol]: the SIRT1 activity entry in assay [2] (concentrations of 100 μg/mL and 20 μg/mL) was “accelerated”; in assay [2] (low concentrations of 10 μg/mL and 2 μg/mL) it was “almost no activity was observed”. In addition, the “sirtuin activity by comparison with the control value” in assay [3] is on record as “enhanced”. In addition, in assay [1], the sirtuin activation activity result is listed as “effective in activating sirtuin”.

(Values after patent publication US9745279B2, “Sirtuin activator” (TOKIWA PHYTOCHEMICAL CO., LTD., priority 2011, dated 2017).)
